Assay [1] concerns the target T1, FLT3 D835H (Homo sapiens, UniProt P36888, D835H).
T1 construct: purchased DiscoverX (KINOMEscan); host or cells: E. coli BL21-derived host (T7 phage) or HEK-293
T1 sequence (P36888 27-993 D835H): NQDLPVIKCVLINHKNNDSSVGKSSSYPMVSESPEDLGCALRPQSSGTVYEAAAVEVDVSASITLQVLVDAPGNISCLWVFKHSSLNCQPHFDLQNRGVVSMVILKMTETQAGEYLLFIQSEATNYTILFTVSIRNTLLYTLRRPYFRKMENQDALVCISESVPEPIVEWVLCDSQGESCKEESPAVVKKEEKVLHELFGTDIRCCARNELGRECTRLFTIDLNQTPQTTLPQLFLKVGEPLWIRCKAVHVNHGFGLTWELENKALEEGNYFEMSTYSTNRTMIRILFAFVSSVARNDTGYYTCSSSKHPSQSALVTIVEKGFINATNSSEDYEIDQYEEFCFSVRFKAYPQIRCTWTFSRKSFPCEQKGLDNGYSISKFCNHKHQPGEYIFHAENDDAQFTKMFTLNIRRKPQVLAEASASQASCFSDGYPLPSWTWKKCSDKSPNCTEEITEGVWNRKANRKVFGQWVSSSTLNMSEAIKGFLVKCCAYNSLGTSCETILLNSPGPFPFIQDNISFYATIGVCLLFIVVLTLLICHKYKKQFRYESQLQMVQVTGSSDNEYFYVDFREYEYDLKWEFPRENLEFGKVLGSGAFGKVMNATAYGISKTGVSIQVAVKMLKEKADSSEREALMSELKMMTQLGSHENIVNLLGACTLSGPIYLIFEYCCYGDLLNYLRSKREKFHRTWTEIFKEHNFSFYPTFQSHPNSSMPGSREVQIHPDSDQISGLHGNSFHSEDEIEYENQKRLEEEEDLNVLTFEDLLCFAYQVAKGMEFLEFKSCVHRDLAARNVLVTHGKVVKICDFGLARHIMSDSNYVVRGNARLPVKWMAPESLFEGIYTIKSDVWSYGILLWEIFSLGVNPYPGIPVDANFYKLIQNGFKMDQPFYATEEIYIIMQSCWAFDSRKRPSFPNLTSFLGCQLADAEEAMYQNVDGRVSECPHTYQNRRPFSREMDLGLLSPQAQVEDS
Briefly: DiscoverX KINOMEscan competition binding assay, FLT3 D835H. As to conditions: 11-point 3-fold dilution. The text has this: (§1) […]. […] As a result, the data report thermodynamic interaction affinities (Kd values), rather than IC50 values that are dependent on ATP concentrations. The assay uses a DNA-tagged version of the protein kinase, and an immobilized ligand bound to a solid support. Compounds that directly or indirectly prevent kinase binding to the immobilized ligand reduce the amount of kinase captured on the solid support, which is detected using an ultra-sensitive qPCR method. Affinity constants reported from the assay have been reported to be independent of the immobilized ligand used that is coupled to the solid support (See supplemental information in Fabian, M. A. et. al., (2005) Nat. Biotechnol. 23, 329-336; Wodicka, L. M. et. al., (2010) Chem. Biol. 17, 1241-1249.)
(§2) Kinase-tagged T7 phage strains were prepared in an E. coli host derived from the BL21 strain. E. coli were grown to log-phase and infected with T7 phage and incubated with shaking at 32° C. until lysis. The lysates were centrifuged and filtered to remove cell debris. The remaining kinases were produced in HEK-293 cells and subsequently tagged with DNA for qPCR detection. Streptavidin-coated magnetic beads were treated with biotinylated small molecule ligands for 30 minutes at room temperature to generate affinity resins for kinase assays. The liganded beads were blocked with excess biotin and washed with blocking buffer (SeaBlock (Pierce), 1% BSA, 0.05% Tween 20, 1 mM DTT) to remove unbound ligand and to reduce non-specific binding. […] Test compounds were prepared as 111× stocks in 100% DMSO. Kds were determined using an 11-point 3-fold compound dilution series with three DMSO control points. All compounds for Kd measurements are distributed by acoustic transfer (non-contact dispensing) in 100% DMSO. The compounds were then diluted directly into the assays such that the final concentration of DMSO was 0.9%. All reactions were performed in polypropylene 384-well plates. Each was a final volume of 0.02 mL. […] The kinase concentration in the eluates was measured by qPCR.
(§3) Binding constants (Kds) were calculated with a standard dose-response curve using the Hill equation. The Hill Slope was set to −1. Curves were fitted using a non-linear least square fit with the Levenberg-Marquardt algorithm.

In assay [2] the target is T2, FLT3 D835Y (Homo sapiens, UniProt P36888, D835Y).
T2 construct: purchased DiscoverX (KINOMEscan); host or cells: E. coli BL21-derived host (T7 phage) or HEK-293
T2 sequence (P36888 27-993 D835Y): T1 sequence (P36888 27-993 D835H) with H809Y
The experiment in a line: DiscoverX KINOMEscan competition binding assay, FLT3 D835Y. As to conditions: 11-point 3-fold dilution.
Description: as §1, §2, §3

Changes are numbered by the printed parent chain. A value given as a limit tells only on which side of the number the result lay.

As a reminder, the Kd is the free concentration of one partner at which half of the binding sites on the other are occupied at equilibrium, for simple one-to-one binding. Lower therefore signals tighter binding. Regarding `COc1cc2ncc(-c3nc(N[C@H]4CNCC[C@@H]4F)ncc3F)n2nc1C1CC1` [Compound 1a, 4-(6-cyclopropyl-7-methoxyimidazo[1,2-b]pyridazin-3-yl)-5-fluoro-N-((3S,4S)-4-fluoropiperidin-3-yl)pyrimidin-2-amine], the Kd stood at 220 pM in assay [1] and 230 pM in assay [2].

Consider `FC(F)COc1cc2ncc(-c3ccnc(N[C@H]4CNCC[C@@H]4F)n3)n2nc1C1CC1` [Compound 4a, 4-(6-cyclopropyl-7-(2,2-difluoroethoxy)imidazo[1,2-b]pyridazin-3-yl)-N-((3 S,4S)-4-fluoropiperidin-3-yl)pyrimidin-2-amine], for which the Kd amounted to 700 pM in assay [1] and 420 pM in assay [2].

For `COc1cc2ncc(-c3nc(N[C@H]4CNCC[C@@H]4F)ncc3F)n2nc1C(C)(C)O` [Compound 45a, 2-(3-(5-fluoro-2-(((3S,4S)-4-fluoropiperidin-3-yl)amino)pyrimidin-4-yl)-7-methoxyimidazo[1,2-b]pyridazin-6-yl)propan-2-ol], the Kd in assay [1] turned out to be 420 pM; in assay [2], 200 pM.

On to `CC(C)(O)c1ccc2ncc(-c3nc(N[C@H]4CNCC[C@@H]4F)ncc3F)n2c1` [Compound 46a, 2-(3-(5-fluoro-2-(((3S,4S)-4-fluoropiperidin-3-yl)amino)pyrimidin-4-yl)imidazo[1,2-a]pyridin-6-yl)propan-2-ol], for which the Kd in assay [1] is 670 pM; in assay [2] it was 260 pM.

As for `COc1cc2ncc(-c3nc(N[C@H]4CNCC[C@@H]4F)ncc3F)n2nc1C1COC1` [Compound 92a, 5-fluoro-N-((3S,4S)-4-fluoropiperidin-3-yl)-4-(7-methoxy-6-(oxetan-3-yl)imidazo[1,2-b]pyridazin-3-yl)pyrimidin-2-amine], the equilibrium dissociation constant (Kd) in assay [1] and in assay [2] was less than 170 pM throughout.

For `CC(C)(O)c1cn2c(-c3nc(N[C@H]4CNCC[C@@H]4F)ncc3F)cnc2cn1` [Compound 100a, 2-(3-(5-fluoro-2-(((3S,4S)-4-fluoropiperidin-3-yl)amino)pyrimidin-4-yl)imidazo[1,2-a]pyrazin-6-yl)propan-2-ol], the Kd in assay [1] was 6300 pM; in assay [2], 2400 pM.

On to `COc1cc2ncc(-c3nc(N[C@H]4CNCC[C@@H]4F)ncc3F)n2nc1N1CCCS1(=O)=O` [Compound 112a, 2-(3-(5-fluoro-2-(((3S,4S)-4-fluoropiperidin-3-yl)amino)pyrimidin-4-yl)-7-methoxyimidazo[1,2-b]pyridazin-6-yl)isothiazolidine 1,1-dioxide], for which the equilibrium dissociation constant (Kd) in assay [1] and in assay [2] was less than 170 pM in each case.

Source of the values: patent publication US20260226048A1, “MULTI-CYCLIC IRAK AND FLT3 INHIBITING COMPOUNDS AND USES THEREOF” (CHILDREN'S HOSPITAL MEDICAL CENTER, priority 2023, published 2026).
